Laboratory results published in BindingDB's records for doi:10.1016/j.bmcl.2005.08.107 (Bristol-Myers Squibb Pharmaceutical Research Institute, 2005).

Biological target: Coagulation factor X (Homo sapiens, UniProt P00742)
Assay: Inhibitory activity against human FXa

Coagulation factor X, sequence (P00742 41-179 limits assumed): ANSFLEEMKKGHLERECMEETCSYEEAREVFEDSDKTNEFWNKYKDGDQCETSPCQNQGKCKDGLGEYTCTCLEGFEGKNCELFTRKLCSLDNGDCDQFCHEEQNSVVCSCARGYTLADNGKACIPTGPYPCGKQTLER
Coagulation factor X, sequence (P00742 235-488 limits assumed): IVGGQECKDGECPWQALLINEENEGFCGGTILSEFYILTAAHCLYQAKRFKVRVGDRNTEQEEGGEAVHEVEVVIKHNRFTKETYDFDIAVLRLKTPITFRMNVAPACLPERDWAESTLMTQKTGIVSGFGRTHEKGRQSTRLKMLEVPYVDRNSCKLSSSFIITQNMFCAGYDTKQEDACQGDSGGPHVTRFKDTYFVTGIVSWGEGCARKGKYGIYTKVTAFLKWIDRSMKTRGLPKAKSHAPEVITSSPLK

IC50 [nM]	SMILES
13	Cc1cc2cc(N=C(N[C@H]3CCCCN(CC(=O)N4CCCC4)C3=O)C(C#N)C(=O)NC(N)=O)ccc2o1 (stereo partly drawn) [(S,Z)-1-(2-cyano-3-(2-methylbenzofuran-5-ylamino)-3-(2-oxo-1-(2-oxo-2-(pyrrolidin-1-yl)ethyl)azepan-3-ylamino)acryloyl)urea]
> 34000	CN(C)c1ccc(NC(C[N+](=O)[O-])=N[C@H]2CCCCN(CC(=O)N3CCCC3)C2=O)cc1 [(S,Z)-3-(1-(4-(dimethylamino)phenylamino)-2-nitrovinylamino)-1-(2-oxo-2-(pyrrolidin-1-yl)ethyl)azepan-2-one]
> 34000	Cc1ccc(NC(C[N+](=O)[O-])=N[C@H]2CCCCN(CC(=O)N3CCCC3)C2=O)cc1 [(S,Z)-3-(1-(p-toluidino)-2-nitrovinylamino)-1-(2-oxo-2-(pyrrolidin-1-yl)ethyl)azepan-2-one]
57	Cc1cc2cc(N=C(N[C@H]3CCCCN(CC(=O)N4CCCC4)C3=O)C(C#N)C(=O)OC(C)(C)C)ccc2o1 (stereo partly drawn) [(S,Z)-tert-butyl 2-cyano-3-(2-methylbenzofuran-5-ylamino)-3-(2-oxo-1-(2-oxo-2-(pyrrolidin-1-yl)ethyl)azepan-3-ylamino)acrylate]

More lines, now with the values behind:

SMILES	IC50 [nM]
Cc1cc2cc(N=C(N[C@H]3CCCCN(CC(=O)N4CCCC4)C3=O)C(C#N)C(=O)c3ccc(Cl)cc3)ccc2o1 (stereo partly drawn) [(S,Z)-2-(4-chlorobenzoyl)-3-(2-methylbenzofuran-5-ylamino)-3-(2-oxo-1-(2-oxo-2-(pyrrolidin-1-yl)ethyl)azepan-3-ylamino)acrylonitrile]	13
COc1ccc(C(=O)C(C#N)C(=Nc2ccc3oc(C)cc3c2)N[C@H]2CCCCN(CC(=O)N3CCCC3)C2=O)cc1 (stereo partly drawn) [(S,Z)-2-(4-methoxybenzoyl)-3-(2-methylbenzofuran-5-ylamino)-3-(2-oxo-1-(2-oxo-2-(pyrrolidin-1-yl)ethyl)azepan-3-ylamino)acrylonitrile]	13
Cc1cc2cc(N=C(N[C@H]3CCCCN(CC(=O)N4CCCC4)C3=O)C(C#N)C(=O)N3CCC(C)CC3)ccc2o1 (stereo partly drawn) [(S,Z)-3-(2-methylbenzofuran-5-ylamino)-2-(4-methylpiperidine-1-carbonyl)-3-(2-oxo-1-(2-oxo-2-(pyrrolidin-1-yl)ethyl)azepan-3-ylamino)acrylonitrile]	57
